# Measurements as given in patent publication US20250161201A1, “COSMETIC COMPOSITION” (THE BOOTS COMPANY PLC, priority 2022, published 2025).
# Assays:
# [1] = system: normal human epidermal keratinocytes (NHEK); assay: Preliminary cytotoxicity assay (WST-8) in keratinocytes; assay type: cell-based; conditions: 24 hours treatment, WST-8, ingredient on its own
# Method: Normal human epidermal keratinocytes (NHEK) were seeded in 24-well plates and placed in culture medium (Keratinocyte-serum free media (SFM) supplemented with Epidermal Growth Factor at concentration 0.025 ug/ml and Pituitary extract at concentration of 0.05 mg/ml) for 24 hours. To determine suitable non-toxic ingredient concentrations, a cytotoxicity assay was first carried out where the NHEKs were treated with ingredients or ingredient blends for 24 hours before being incubated with WST-8 (highly water-soluble tetrazolium salt) which is reduced to a water-soluble orange coloured product (formazan) by viable, living cells and is quantified by optical density measurement at 450 nm using a spectrophotometer (VERSAmax, Molecular Devices). This reduction is proportional to the number of living cells and their metabolic activity
# [2] = system: Interleukin-8 (IL-8) mRNA; assay: IL-8 mRNA expression by RT-qPCR in NHEK; assay type: cell-based, human; conditions: 24 hours, used on its own, vs media only control
# Method: Interleukin 8 is a measurable biomarker for inflammation. The effectiveness of the presently described compositions in reducing inflammation, and promoting skin barrier repair, are assessed by measuring the reduction in the expression of Interleukin-8 (IL-8) in the skin cells tested. Over expression of IL-8 in the epidermis can lead to disruption of epidermal homeostasis i.e. disruption of the skin cell differentiation, proliferation and desquamation processes.
# In the present experiment, the effects of compounds were assessed in normal human epidermal keratinocytes (NHEK). More specifically, the effects of these compounds were evaluated using real time polymerase chain reaction (RT-qPCR) technology. […]
# IL-8 mRNA expression was analysed using RT-qPCR as part of this array. […] The amount and quality of mRNA was evaluated using capillary electrophoresis with a Bioanalyzer 2100 (Agilent technologies). […] The cDNA quantities were then diluted if necessary, to achieve equal amount of cDNA concentration in each test sample, before carrying out PCR (Polymerase Chain Reaction) using the LightCycler (trade name) system (commercially available from Roche Molecular System Inc.) according to the supplier's instructions. […] The more copies of DNA/cDNA that have been produced through PCR, the more SYBR Green molecules will bind the DNA/cDNA and the higher the level of fluorescence. […]
smiles,measurement,setting,value
"NC(=O)c1cccnc1 [Niacinamide, niacinamide]",maximum concentration usable without causing a loss in viability or death of the epidermal keratinocytes,[1],500 ppm
same,increase of IL-8 mRNA expression,[2],18%
